Experimental data as given in patent publication US11274332B2, “Methods of administering 3,4-diaminopyridine” (SERB SA, priority 2011, dated 2022).

Experiment: Bioavailability/bioequivalence study of 3,4-DAP phosphate salt vs free base in healthy subjects (Example A)
Type: in vivo, human
Description: The primary objectives of the study were to evaluate the clinical tolerance of a single 10 mg dose (equivalent base) oral intake of 3,4-DAP salt in five healthy subjects and to determine the relative bioequivalence of a single 20 mg oral dose of 3,4-DAP administered as a salt or as a free base to 26 healthy subjects. The secondary objectives were to study pharmacokinetic parameters (elimination half and elimination constant), to compare the biological tolerance of both a 20 mg oral intake of 3,4-DAP as a free base and as a salt, and to measure QTcf intervals at expected Cmax.
This was an open and uncontrolled study of the clinical tolerance to a low dose of the phosphate salt. Subjects were hospitalized from 8 am to 4 pm after fasting since midnight the previous night. At 8:30 am, one 10 mg 3,4-DAP phosphate tablet was administered with a glass of water in the presence of a supervising nurse. During their 8-hour stay, heart rate was continuously monitored, blood pressure was measured on eight occasions (including baseline) and three urine samples were taken.
This was a double-blind, randomized 2-way cross-over trial. The two administration periods were separated by a wash-out of at least 3 days and not more than 10 days. At the beginning of each period, subjects were hospitalized at 8 am (while fasting since midnight) for at least 12 hours. At their arrival a urinary sample was taken and avenous catheter was inserted into an antecubital vein. A first blood sample was drawn 15 min before drug intake. At around 8:30 am drug was administered (as the phosphate salt or free base according to randomization) with a glass of water under the supervision of a nurse and subjects remained seated for 15 min. Group A received two 10 mg tablets of 3,4-DAP phosphate. Group B received two 10 mg capsules of 3,4-DAP as a free base.
Two 5 mL blood samples were drawn at the following times after drug administration: 5 min, 10 min, 15 min, 20 min, 30 min, 45 min, 60 min, 75 min, 90 min, 120 min, 240 min, 360 min, 480 min, and 660 min. At each sampling time two 5 mL samples were drawn on […] heparinized tubes. They were immediately centrifuged at room temperature. Serum was then separated and dispatched into three clearly identified aliquots which were frozen at −20° C. […]
12-lead ECGs (50 mm/s, 2 cm/mV) were recorded over 1 minute three times prior to drug intake (HR-RR, QT and QTcf were averaged to determine baseline values) and then at 15, 20, 30, 45, 60, 75, 90, 120, and 240 min post dose. ECG parameters were recorded by using Cardionics™ ECG/VCG software (version 3.3.0). Blood pressure was measured at 120 min post dosing. […]
An HPLC-electrochemical detection system was used to assay 3,4-DAP in serum samples. […] The extracted sample was analyzed by HPLC coupled with coulemetric detection. […]

SMILES: Nc1ccncc1N [3,4-DAP, 3,4-diaminopyridine]
- differences in Cmax, AUC and t1/2 between subjects (between patients): up to 10 fold
- Cmax (human, serum, as the phosphate salt, 20 mg oral, read-out: Cmax, range between patients): 13 to 167 ng/mL
- half-life (human, serum, phosphate salt or free base, 20 mg oral): < 2.6 h
- coefficient of variations for AUCs and Cmax (phosphate salt or free base, 20 mg oral): exceeding 30%
